One experiment concerns human neutrophils. The experiment can be described thus: NET photography (immunofluorescence and scanning electron microscopy). It counts as cell-based. Particulars: 10 nM PMA; 1-10 μM bletinib. The method, then: Neutrophils (3×10^5 cells/mL) were incubated with DMSO or bletinib for 10 min before being activated with 10 nM PMA for 2 h. Neutrophils were fixed with 4% paraformaldehyde and treated with 5% goat serum blocking buffer for 1 h and then treated with […] anti-MPO (Abcam) and 5 μg/mL anti-NE (Merck Millipore) antibodies for 1 h. These cells were then treated with the Alexa 488 or 568-labelled secondary goat anti-rabbit antibody for another 1 h. Thereafter, the cells were washed with PBS and treated with 1 ng/mL Hoechst 33342 and ProLong Gold antifade reagent (Invitrogen, CA, USA). Immunofluorescence microscopy and scanning electron microscopy were both used to observe the NET formation of activated neutrophils.

The next experiment relates to Fgr (Y412). The experiment can be described thus: Immunoblotting of neutrophil lysates, Fgr phosphorylation. It counts as cell-based, human. Particulars: 0.1 μM fMLF-stimulated neutrophils. As to the method:
(§1) Neutrophils incubated with bletinib or DMSO at 37° C. for 5 min were stimulated with 0.1 μM fMLF for 30 s. The proteins were separated from neutrophil lysates through electrophoresis (12% sodium dodecyl sulphate-polyacrylamide gel electrophoresis) and then transferred to nitrocellulose membranes. The target proteins were identified through immunoblotting with specific antibodies against p38, p-p38, Akt, p-Akt S473, ERK, p-ERK, INK, p-JNK, Src, p-SFKs Y416, p-Src Y416, Lyn, p-Lyn (Y396), Fgr, p-Fgr (Y412), Hck, p-Hck (Y410), Btk, p-Btk Y223, Vav, and p-Vav (Y174) as well as with HRP-conjugated secondary anti-rabbit antibody (Cell Signaling Technology). The signal intensity was detected and quantified using the UVP BioSpectrum Imaging System (Analytik Jena, USA).
On the technique in general: In western blotting, separated proteins are transferred to a membrane and probed.

The test system of the next experiment is BALB/c mice. The experiment can be described thus: LPS-induced mortality model in mice. It counts as in vivo. Particulars: 25 mg/Kg bletinib; LPS 5 mg/Kg; monitored 5 days; log-rank p=0.0085. As to the method: For the LPS-induced mortality model, mice were intraperitoneally injected with a single 50-μL dose of LPS (from Escherichia coli O111:B4; 5 mg/kg) or 0.9% saline (vehicle alone group). The mice were monitored for 5 days to determine the survival rate.

In another experiment the test system is CD18 (integrin β2). The experiment can be described thus: Surface CD18 expression, flow cytometry. In kind it is cell-based, human. Particulars: 1-10 μM bletinib; 0.1 μM fMLF/CB. As to the method:
Neutrophils (5×10^5 cells/mL) were incubated with bletinib or DMSO for 5 min and then activated through incubation with 0.1 μM fMLF/1 μg/mL CB for 5 min. After centrifugation at 200×g for 8 min at 4° C., the cells were resuspended in 5% bovine serum albumin with FITC-conjugated antibodies against CD18 or CD11b on ice in the dark for 15 min. The fluorescent intensity was then analysed through fluorescence-activated cell sorting.
On the technique in general: In flow cytometry, cells or beads pass a laser one at a time.

In a further experiment the test system is p-SFKs Y416. The experiment can be described thus: Immunoblotting of neutrophil lysates, SFKs phosphorylation. It counts as cell-based, human. Particulars: 10 μM bletinib; 0.1 μM fMLF. As to the method: as §1
In the next experiment the target is Lyn (Homo sapiens, UniProt P07948). The experiment can be described thus: Cell-free ADP-Glo kinase assay, Lyn. In kind it is biochemical. Particulars: 1-10 μM bletinib or 0.1-3 μM PP2; 125 μM ATP; concentration-dependent. The method, then:
(§2) The kinase activity of SFKs was assessed using an ADP-Glo kinase assay kit (Promega, Fitchburg, USA) according to manufacturer instructions. […] The ADP-Glo reagent was used to end the kinase reaction and remove the remnant ATP; next, the kinase, which converted ADP to ATP, detection reagent was added and incubated for 30 min. Luciferin/luciferase luminescence was determined on an Infinite 200 Pro (Tecan, Switzerland).
Background: In ADP-Glo the light output rises with the ADP produced.

Another experiment relates to Lyn (Y396). The experiment can be described thus: Immunoblotting of neutrophil lysates, Lyn phosphorylation. It counts as cell-based, human. Particulars: 0.1 μM fMLF-stimulated neutrophils. The method, then: as §1
The next experiment concerns the target Fgr (Homo sapiens, UniProt P09769). The experiment can be described thus: Cell-free ADP-Glo kinase assay, Fgr. In kind it is biochemical. Particulars: 1-10 μM bletinib or 0.1-3 μM PP2; 125 μM ATP; concentration-dependent. As to the method:
as §2

The structures appear in SMILES notation.

Lyn, sequence (P07948 whole entry): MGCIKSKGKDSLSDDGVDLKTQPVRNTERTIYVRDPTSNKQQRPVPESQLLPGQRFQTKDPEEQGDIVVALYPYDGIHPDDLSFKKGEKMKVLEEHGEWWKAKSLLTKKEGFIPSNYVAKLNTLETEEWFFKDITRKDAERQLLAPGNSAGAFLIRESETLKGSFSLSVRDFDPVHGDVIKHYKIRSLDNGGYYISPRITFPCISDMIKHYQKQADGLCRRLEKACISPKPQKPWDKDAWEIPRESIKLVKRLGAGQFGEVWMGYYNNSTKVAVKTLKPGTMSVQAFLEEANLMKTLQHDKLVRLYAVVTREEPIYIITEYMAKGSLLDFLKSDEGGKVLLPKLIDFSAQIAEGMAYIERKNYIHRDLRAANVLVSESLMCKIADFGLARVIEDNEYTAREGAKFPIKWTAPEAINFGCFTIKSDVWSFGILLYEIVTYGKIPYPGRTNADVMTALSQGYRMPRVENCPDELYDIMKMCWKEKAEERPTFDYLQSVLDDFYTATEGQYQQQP
Fgr, sequence (P09769 whole entry): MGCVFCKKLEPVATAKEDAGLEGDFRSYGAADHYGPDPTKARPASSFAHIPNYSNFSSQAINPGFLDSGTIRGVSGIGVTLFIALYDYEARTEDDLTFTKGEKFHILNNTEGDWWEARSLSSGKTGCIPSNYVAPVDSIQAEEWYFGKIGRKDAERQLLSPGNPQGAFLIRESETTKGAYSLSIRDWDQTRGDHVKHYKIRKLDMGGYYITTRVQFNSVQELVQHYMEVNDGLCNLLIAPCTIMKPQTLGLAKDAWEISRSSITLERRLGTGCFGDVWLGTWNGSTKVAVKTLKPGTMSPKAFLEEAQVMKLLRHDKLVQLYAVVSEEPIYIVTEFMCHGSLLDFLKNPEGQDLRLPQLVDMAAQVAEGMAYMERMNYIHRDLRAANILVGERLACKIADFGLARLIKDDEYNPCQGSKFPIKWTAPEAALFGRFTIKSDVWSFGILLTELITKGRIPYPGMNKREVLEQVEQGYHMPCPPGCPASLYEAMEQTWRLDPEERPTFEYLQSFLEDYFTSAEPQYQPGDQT

As to `COc1cc(O)cc(CCc2c(Cc3ccc(O)cc3)ccc(O)c2Cc2ccc(O)cc2)c1` [bletinib, 3,3′-dihydroxy-2′,6′-bis(p-hydroxybenzyl)-5-methoxybibenzyl], in the experiment on human neutrophils, the “NET formation, immunofluorescent staining and scanning electron microscopy images” value is on record as “effectively inhibited”. Also, the “phosphorylation of Fgr (Y412)” value in the experiment with Fgr (Y412) is reported as “significantly inhibited”. Also, the “survival time of LPS-primed mice” value with BALB/c mice is listed as “significantly prolonged”. In addition, the “expression of CD18 in fMLF-stimulated human neutrophils” value in the experiment with CD18 (integrin β2) was “significantly attenuated”. Also, the “phosphorylation of SFKs” value in the experiment on p-SFKs Y416 is on record as “significantly inhibited”. For the same molecule, on Lyn, the “kinase activity of Lyn” value is reported as “inhibited”. Moreover, the “phosphorylation of Lyn (Y396)” value with Lyn (Y396) is given as “significantly inhibited”. For the same molecule, at Fgr, the “kinase activity of Fgr” value is on record as “inhibited”.

These data come from patent US20220339122A1, “METHODS FOR THE TREATMENT OF DISEASES ASSOCIATED WITH DYSREGULATED ACTIVATION AND RECRUITMENT OF NEUTROPHILS” (Chang Gung University, priority 2021, published 2022).
